Measured values from patent publication US20250188092A1, “RIFAMYCIN ANALOGS” (THE REGENTS OF THE UNIVERSITY OF MICHIGAN, priority 2021, published 2025).
In brackets after ≈: the same amount, converted by molar mass.

System: non-replicating cultures of M. tuberculosis H37Rv transformed with lux ABCDE
Assay: microbe, parasite or virus in culture
Assay type: cell-based, Mycobacterium tuberculosis
Details: for MIC90 LORA/MABA: ratio of LORA MIC90 to MABA MIC90
[1] = Mycobacterium tuberculosis, H37RV, […], ≥90% reduction in luminescence, read-out: MIC90 LORA

| SMILES | MIC90 LORA Rel to RMP | MIC [1] [µM] | MIC90 LORA/MABA | MIC90 [1] [µM] |
| --- | --- | --- | --- | --- |
| CO[C@H]1/C=C/O[C@@]2(C)Oc3c(C)c(O)c4c(=O)c(c5oc6cccc(OCCCCN7CCN(C)CC7)c6nc-5c4c3C2=O)NC(=O)/C(C)=C\C=C\[C@H](C)[C@H](O)[C@@H](C)[C@@H](O)[C@@H](C)[C@H](OC(C)=O)[C@@H]1C [Compound 5a, (7S,9E,11S,12R,13S,14R,15R,16R,17S,18S,19E,21Z)-2,15,17-Trihydroxy-11-methoxy-3,7,12,14,16,18,22-heptamethyl-32-[4-(4-methylpiperazin-1-yl)butoxy]-6,23,37-trioxo-8,27,38-trioxa-24,34-diazahexacyclo[23.11.1.1^4,7.0^5,36.0^26,35.0^28,33]octatriaconta-1(36)2,4,9,19,21,25,28(33)29,31,34-undecaen-13-yl acetate] | 0.57 | 0.186 | 2.0 |  |
| CO[C@H]1/C=C/O[C@@]2(C)Oc3c(C)c(O)c4c(=O)c(c5oc6cccc(OCCCCN7CCOCC7)c6nc-5c4c3C2=O)NC(=O)/C(C)=C\C=C\[C@H](C)[C@H](O)[C@@H](C)[C@@H](O)[C@@H](C)[C@H](OC(C)=O)[C@@H]1C [Compound 5b, (7S,9E,11S,12R,13S,14R,15R,16R,17S,18S,19E,21Z)-2,15,17-Trihydroxy-11-methoxy-3,7,12,14,16,18,22-heptamethyl-32-[4-(morpholin-4-yl)butoxy]-6,23,37-trioxo-8,27,38-trioxa-24,34-diazahexacyclo[23.11.1.1^4,7.0^5,36.0^26,35.0^28,33]octatriaconta-1(36)2,4,9,19,21,25,28(33)29,31,34-undecaen-13-yl acetate] | 0.15 | 0.05 | 2.4 |  |
| CO[C@H]1/C=C/O[C@@]2(C)Oc3c(C)c(O)c4c(=O)c(c5oc6cccc(OCCCCN7CCN(C(=O)OC(C)(C)C)CC7)c6nc-5c4c3C2=O)NC(=O)/C(C)=C\C=C\[C@H](C)[C@H](O)[C@@H](C)[C@@H](O)[C@@H](C)[C@H](OC(C)=O)[C@@H]1C [Compound 5c, Tert-Butyl 4-(4-{[(7S,9E,11S,12R,13S,14R,15R,16R,17S,18S,19E,21Z)-13-(acetyloxy)-2,15,17-trihydroxy-11-methoxy-3,7,12,14,16,18,22-heptamethyl-6,23,37-trioxo-8,27,38-trioxa-24,34-diazahexacyclo[23.11.1.1^4,7.0^5,36.0^26,35.0^28,33]octatriaconta-1(36)2,4,9,19,21,25,28(33)29,31,34-undecaen-32-yl]oxy}butyl)piperazine-1-carboxylate] | 0.22 | 0.058 (≈ 0.0604 µg/mL) | 2.4 |  |
| CO[C@H]1/C=C/O[C@@]2(C)Oc3c(C)c(O)c4c(=O)c(c5oc6cc(N7CCN(CC(C)C)CC7)cc(OCCCCN7CCOCC7)c6nc-5c4c3C2=O)NC(=O)/C(C)=C\C=C\[C@H](C)[C@H](O)[C@@H](C)[C@@H](O)[C@@H](C)[C@H](OC(C)=O)[C@@H]1C [Compound 6a, (7S,9E,11S,12R,13S,14R,15R,16R,17S,18S,19E,21Z)-2,15,17-Trihydroxy-11-methoxy-3,7,12,14,16,18,22-heptamethyl-30-[4-(2-methylpropyl)piperazin-1-yl]-32-[4-(morpholin-4-yl)butoxy]-6,23,37-trioxo-8,27,38-trioxa-24,34-diazahexacyclo[23.11.1.1^4,7.0^5,36.0^26,35.0^28,33]octatriaconta-1(36)2,4,9,19,21,25,28(33)29,31,34-undecaen-13-yl acetate] | 0.07 | 0.186 | 2.0 |  |
| CO[C@H]1/C=C/O[C@@]2(C)Oc3c(C)c(O)c4c(=O)c(c5oc6cc(N7CCN(CC(C)C)CC7)cc(OCCCCN7CCN(CCn8ccnc8)CC7)c6nc-5c4c3C2=O)NC(=O)/C(C)=C\C=C\[C@H](C)[C@H](O)[C@@H](C)[C@@H](O)[C@@H](C)[C@H](OC(C)=O)[C@@H]1C [Compound 6b, (7S,9E,11S,12R,13S,14R,15R,16R,17S,18S,19E,21Z)-2,15,17-trihydroxy-32-(4-{4-[2-(1H-imidazol-1-yl)ethyl]piperazin-1-yl}butoxy)-11-methoxy-3,7,12,14,16,18,22-heptamethyl-30-[4-(2-methylpropyl)piperazin-1-yl]-6,23,37-trioxo-8,27,38-trioxa-24,34-diazahexacyclo[23.11.1.1^4,7.0^5,36.0^26,35.0^28,33]octatriaconta-1(36)2,4,9,19,21,25,28(33)29,31,34-undecaen-13-yl acetate] | 0.05 | 0.05 | 2.4 |  |
| CO[C@H]1/C=C/O[C@@]2(C)Oc3c(C)c(O)c4c(=O)c(c5oc6cc(N7CCN(C)CC7)cc(OCCCCN7CCN(C(=O)Cn8ccnc8)CC7)c6nc-5c4c3C2=O)NC(=O)/C(C)=C\C=C\[C@H](C)[C@H](O)[C@@H](C)[C@@H](O)[C@@H](C)[C@H](OC(C)=O)[C@@H]1C [Compound 6c, (7S,9E,11S,12R,13S,14R,15R,16R,17S,18S,19E,21Z)-2,15,17-Trihydroxy-32-(4-{4-[2-(1H-imidazol-1-yl)acetyl]piperazin-1-yl}butoxy)-11-methoxy-3,7,12,14,16,18,22-heptamethyl-30-(4-methylpiperazin-1-yl)-6,23,37-trioxo-8,27,38-trioxa-24,34-diazahexacyclo[23.11.1.1^4,7.0^5,36.0^26,35.0^28,33]octatriaconta-1(36)2,4,9,19,21,25,28(33)29,31,34-undecaen-13-yl acetate] | 0.14 | 0.021 | 0.5 |  |
| CO[C@H]1/C=C/O[C@@]2(C)Oc3c(C)c(O)c4c(=O)c(c5oc6cc(N7CCN(CC(C)C)CC7)cc(OCCCCN7CCN(C(=O)Cn8ccnc8)CC7)c6nc-5c4c3C2=O)NC(=O)/C(C)=C\C=C\[C@H](C)[C@H](O)[C@@H](C)[C@@H](O)[C@@H](C)[C@H](OC(C)=O)[C@@H]1C [Compound 6d, (7S,9E,11S,12R,13S,14R,15R,16R,17S,18S,19E,21Z)-2,15,17-Trihydroxy-32-(4-{4-[2-(1H-imidazol-1-yl)acetyl]piperazin-1-yl}butoxy)-11-methoxy-3,7,12,14,16,18,22-heptamethyl-30-[4-(2-methylpropyl)piperazin-1-yl]-6,23,37-trioxo-8,27,38-trioxa-24,34-diazahexacyclo[23.11.1.1^4,7.0^5,36.0^26,35.0^28,33]octatriaconta-1(36)2,4,9,19,21,25,28,30,32,34-undecaen-13-yl acetate] | 0.06 | 0.058 | 2.4 |  |
| CO[C@H]1/C=C/O[C@@]2(C)Oc3c(C)c(O)c4c(=O)c(c5oc6cccc(OCc7cccc(CN8CCN(C(C)=O)CC8)c7)c6nc-5c4c3C2=O)NC(=O)/C(C)=C\C=C\[C@H](C)[C@H](O)[C@@H](C)[C@@H](O)[C@@H](C)[C@H](OC(C)=O)[C@@H]1C [Compound 11c, (7S,9E,11S,12R,13S,14R,15R,16R,17S,18S,19E,21Z)-32-({3-[(4-Acetylpiperazin-1-yl)methyl]phenyl}methoxy)-2,15,17-trihydroxy-11-methoxy-3,7,12,14,16,18,22-heptamethyl-6,23,37-trioxo-8,27,38-trioxa-24,34-diazahexacyclo-[23.11.1.1^4,7.0^5,36.0^26,35.0^28,33]octatriaconta-1(36)2,4,9,19,21,25,28,30,32,34-undecaen-13-yl acetate] | 0.53 |  | 2.1 | 0.123 |
| CO[C@H]1/C=C/O[C@@]2(C)Oc3c(C)c(O)c4c(=O)c(c5oc6cccc(OCc7cccc(CN8CCN(C(=O)Cn9ccnc9)CC8)c7)c6nc-5c4c3C2=O)NC(=O)/C(C)=C\C=C\[C@H](C)[C@H](O)[C@@H](C)[C@@H](O)[C@@H](C)[C@H](OC(C)=O)[C@@H]1C [Compound 11e, (7S,9E,11S,12R,13S,14R,15R,16R,17S,18S,19E,21Z)-2,15,17-Trihydroxy-32-{[3-({4-[2-(1H-imidazol-1-yl)acetyl]piperazin-1-yl}methyl)phenyl]methoxy}-11-methoxy-3,7,12,14,16,18,22-heptamethyl-6,23,37-trioxo-8,27,38-trioxa-24,34-diazahexacyclo[23.11.1.1^4,7.0^5,36.0^26,35.0^28,33]octatriaconta-1(36)2,4,9,19,21,25,28,30,32,34-undecaen-13-yl acetate] | 0.26 | 0.078 | 1.6 |  |
| CO[C@H]1/C=C/O[C@@]2(C)Oc3c(C)c(O)c4c(=O)c(c5oc6cccc(OCc7ccc(CN8CCN(C(=O)Cn9ccnc9)CC8)cc7)c6nc-5c4c3C2=O)NC(=O)/C(C)=C\C=C\[C@H](C)[C@H](O)[C@@H](C)[C@@H](O)[C@@H](C)[C@H](OC(C)=O)[C@@H]1C [Compound 16b, (7S,9E,11S,12R,13S,14R,15R,16R,17S,18S,19E,21Z)-2,15,17-Trihydroxy-32-{[4-({4-[2-(1H-imidazol-1-yl)acetyl]piperazin-1-yl}methyl)phenyl]methoxy}-11-methoxy-3,7,12,14,16,18,22-heptamethyl-6,23,37-trioxo-8,27,38-trioxa-24,34-diazahexacyclo[23.11.1.1^4,7.0^5,36.0^26,35.0^28,33]octatriaconta-1(36)2,4,9,19,21,25,28,30,32,34-undecaen-13-yl acetate] | 0.93 | 0.057 | 2.0 |  |
